From ChEMBL document CHEMBL4507281, “Data for DCP probe BI-4394” (2021)

Legend:
[1] = tested on: Tyrosine-protein kinase ABL1 (Homo sapiens), P00519 [F317L]; conditions: Compound concentration 100.0 nM
[2] = molecular target: Activin receptor type-2A (Homo sapiens) (UniProt P27037); conditions: Compound concentration 100.0 nM
[3] = molecular target: 5'-AMP-activated protein kinase catalytic subunit alpha-1 (Homo sapiens) (UniProt Q13131); conditions: Compound concentration 100.0 nM
[4] = molecular target: Mitogen-activated protein kinase kinase kinase 5 (Homo sapiens) (UniProt Q99683); conditions: Compound concentration 100.0 nM
[5] = molecular target: T1, Aurora kinase A (Homo sapiens) (UniProt O14965); conditions: Compound concentration 100.0 nM
T1 sequence (whole entry): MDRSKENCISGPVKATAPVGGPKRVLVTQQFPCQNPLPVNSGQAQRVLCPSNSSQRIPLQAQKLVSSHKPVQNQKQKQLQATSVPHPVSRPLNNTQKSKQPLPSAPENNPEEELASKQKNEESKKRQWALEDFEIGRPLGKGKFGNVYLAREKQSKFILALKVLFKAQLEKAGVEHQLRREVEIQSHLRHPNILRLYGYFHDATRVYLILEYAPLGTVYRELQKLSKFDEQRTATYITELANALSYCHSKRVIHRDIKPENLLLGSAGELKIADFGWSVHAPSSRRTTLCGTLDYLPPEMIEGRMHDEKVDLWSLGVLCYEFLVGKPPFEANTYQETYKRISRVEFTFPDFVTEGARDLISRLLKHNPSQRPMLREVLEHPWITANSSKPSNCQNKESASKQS

[6] = molecular target: Tyrosine-protein kinase BTK (Homo sapiens) (UniProt Q06187); conditions: Compound concentration 100.0 nM
[7] = molecular target: Calcium/calmodulin-dependent protein kinase type II subunit alpha (Homo sapiens) (UniProt Q9UQM7); conditions: Compound concentration 100.0 nM
[8] = molecular target: Cyclin-dependent kinase 4 (Homo sapiens) (UniProt P11802); conditions: Compound concentration 100.0 nM
[9] = molecular target: Cyclin-dependent kinase-like 1 (Homo sapiens) (UniProt Q00532); conditions: Compound concentration 100.0 nM
[10] = molecular target: Cyclin-dependent kinase-like 5 (Homo sapiens) (UniProt O76039); conditions: Compound concentration 100.0 nM
[11] = molecular target: Serine/threonine-protein kinase Chk2 (Homo sapiens) (UniProt O96017); conditions: Compound concentration 100.0 nM
[12] = molecular target: Casein kinase I isoform alpha-like (Homo sapiens) (UniProt Q8N752); conditions: Compound concentration 100.0 nM
Casein kinase I isoform alpha-like (Homo sapiens), sequence (Q8N752 whole entry, canonical isoform): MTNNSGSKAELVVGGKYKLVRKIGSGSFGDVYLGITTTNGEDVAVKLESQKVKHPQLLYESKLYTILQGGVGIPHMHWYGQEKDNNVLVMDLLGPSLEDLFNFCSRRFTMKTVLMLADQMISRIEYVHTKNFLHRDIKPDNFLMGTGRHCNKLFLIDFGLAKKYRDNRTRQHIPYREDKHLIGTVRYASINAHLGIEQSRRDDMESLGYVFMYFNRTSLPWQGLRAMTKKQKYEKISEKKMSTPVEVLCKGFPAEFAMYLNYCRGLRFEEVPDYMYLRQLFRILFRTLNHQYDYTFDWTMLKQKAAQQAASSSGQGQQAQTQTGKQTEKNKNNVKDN

[13] = molecular target: Casein kinase I isoform gamma-2 (Homo sapiens) (UniProt P78368); conditions: Compound concentration 100.0 nM
Casein kinase I isoform gamma-2 (Homo sapiens), sequence (P78368 whole entry, looked up, canonical isoform): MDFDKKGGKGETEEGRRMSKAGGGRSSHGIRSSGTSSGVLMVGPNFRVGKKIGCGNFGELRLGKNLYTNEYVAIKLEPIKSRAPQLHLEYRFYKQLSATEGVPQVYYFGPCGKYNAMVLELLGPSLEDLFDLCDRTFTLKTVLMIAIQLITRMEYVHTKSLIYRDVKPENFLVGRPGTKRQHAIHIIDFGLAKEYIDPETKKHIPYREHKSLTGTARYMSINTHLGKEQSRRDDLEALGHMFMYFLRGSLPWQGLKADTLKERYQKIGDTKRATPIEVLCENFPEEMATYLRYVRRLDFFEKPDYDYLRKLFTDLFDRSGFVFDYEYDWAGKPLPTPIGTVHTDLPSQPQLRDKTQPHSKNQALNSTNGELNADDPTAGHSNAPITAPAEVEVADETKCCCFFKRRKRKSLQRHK

[14] = molecular target: Casein kinase I isoform gamma-3 (Homo sapiens) (UniProt Q9Y6M4); conditions: Compound concentration 100.0 nM
[15] = molecular target: Megakaryocyte-associated tyrosine-protein kinase (Homo sapiens) (UniProt P42679); conditions: Compound concentration 100.0 nM
Megakaryocyte-associated tyrosine-protein kinase (Homo sapiens), sequence (P42679 whole entry): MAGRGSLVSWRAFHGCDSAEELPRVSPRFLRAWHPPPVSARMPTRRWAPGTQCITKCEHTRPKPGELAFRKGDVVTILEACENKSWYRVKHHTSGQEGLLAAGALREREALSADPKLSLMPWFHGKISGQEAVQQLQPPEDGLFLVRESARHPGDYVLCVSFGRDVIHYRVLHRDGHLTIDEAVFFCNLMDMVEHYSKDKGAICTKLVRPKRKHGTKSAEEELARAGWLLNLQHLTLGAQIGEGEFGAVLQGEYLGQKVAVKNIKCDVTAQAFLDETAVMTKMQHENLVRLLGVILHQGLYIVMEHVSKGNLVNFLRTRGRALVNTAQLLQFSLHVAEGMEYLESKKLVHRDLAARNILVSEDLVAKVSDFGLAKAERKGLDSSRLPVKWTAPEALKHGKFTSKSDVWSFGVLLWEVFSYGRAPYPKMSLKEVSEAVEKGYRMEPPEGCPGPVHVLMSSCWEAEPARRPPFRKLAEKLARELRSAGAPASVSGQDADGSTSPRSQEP

[16] = tested on: Epidermal growth factor receptor (Homo sapiens), P00533 [UNDEFINED MUTATION]; conditions: Compound concentration 100.0 nM
[17] = molecular target: Tyrosine-protein kinase Fyn (Homo sapiens) (UniProt P06241); conditions: Compound concentration 100.0 nM
[18] = molecular target: Insulin receptor (Homo sapiens) (UniProt P06213); conditions: Compound concentration 100.0 nM
[19] = molecular target: Mitogen-activated protein kinase kinase kinase kinase 2 (Homo sapiens) (UniProt Q12851); conditions: Compound concentration 100.0 nM
[20] = tested on: Hepatocyte growth factor receptor (Homo sapiens), P08581 [Y1235D]; conditions: Compound concentration 100.0 nM
[21] = molecular target: Mitogen-activated protein kinase kinase kinase 10 (Homo sapiens) (UniProt Q02779); conditions: Compound concentration 100.0 nM
[22] = molecular target: Serine/threonine-protein kinase Nek3 (Homo sapiens) (UniProt P51956); conditions: Compound concentration 100.0 nM
[23] = molecular target: Platelet-derived growth factor receptor alpha (Homo sapiens) (UniProt P16234); conditions: Compound concentration 100.0 nM
[24] = tested on: Phosphatidylinositol 4,5-bisphosphate 3-kinase catalytic subunit alpha isoform (Homo sapiens), P42336 [Q546K]; conditions: Compound concentration 100.0 nM
Phosphatidylinositol 4,5-bisphosphate 3-kinase catalytic subunit alpha isoform (Homo sapiens), P42336 [Q546K], sequence (P42336 whole entry Q546K, canonical isoform): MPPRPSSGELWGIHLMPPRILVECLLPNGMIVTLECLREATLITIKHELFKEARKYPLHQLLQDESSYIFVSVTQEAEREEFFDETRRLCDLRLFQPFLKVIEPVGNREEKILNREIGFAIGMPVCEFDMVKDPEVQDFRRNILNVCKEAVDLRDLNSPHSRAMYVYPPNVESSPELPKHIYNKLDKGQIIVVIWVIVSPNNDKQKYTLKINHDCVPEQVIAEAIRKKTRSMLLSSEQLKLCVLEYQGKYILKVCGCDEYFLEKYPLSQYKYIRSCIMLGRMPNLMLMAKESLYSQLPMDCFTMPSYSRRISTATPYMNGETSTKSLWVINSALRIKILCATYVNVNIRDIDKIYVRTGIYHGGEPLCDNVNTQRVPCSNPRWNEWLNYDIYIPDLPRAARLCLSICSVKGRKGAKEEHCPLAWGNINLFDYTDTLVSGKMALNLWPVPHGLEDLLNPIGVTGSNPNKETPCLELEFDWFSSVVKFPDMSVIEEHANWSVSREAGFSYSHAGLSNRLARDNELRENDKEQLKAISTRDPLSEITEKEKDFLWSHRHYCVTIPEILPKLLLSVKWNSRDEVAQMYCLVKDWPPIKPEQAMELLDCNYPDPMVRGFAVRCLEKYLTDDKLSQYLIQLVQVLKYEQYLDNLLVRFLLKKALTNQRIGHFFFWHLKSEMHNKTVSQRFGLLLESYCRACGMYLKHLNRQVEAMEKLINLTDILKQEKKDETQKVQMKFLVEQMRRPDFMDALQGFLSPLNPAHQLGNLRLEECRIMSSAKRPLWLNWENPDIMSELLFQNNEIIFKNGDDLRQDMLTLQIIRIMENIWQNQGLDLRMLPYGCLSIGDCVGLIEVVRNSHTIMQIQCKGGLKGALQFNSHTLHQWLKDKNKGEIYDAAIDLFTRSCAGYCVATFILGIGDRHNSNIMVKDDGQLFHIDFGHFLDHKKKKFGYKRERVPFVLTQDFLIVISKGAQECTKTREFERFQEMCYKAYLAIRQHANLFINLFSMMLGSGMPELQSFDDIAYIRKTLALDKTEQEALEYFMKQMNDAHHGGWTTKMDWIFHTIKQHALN

[25] = molecular target: Phosphatidylinositol 4,5-bisphosphate 3-kinase catalytic subunit gamma isoform (Homo sapiens) (UniProt P48736); conditions: Compound concentration 100.0 nM
Phosphatidylinositol 4,5-bisphosphate 3-kinase catalytic subunit gamma isoform (Homo sapiens), sequence (P48736 whole entry, looked up, canonical isoform): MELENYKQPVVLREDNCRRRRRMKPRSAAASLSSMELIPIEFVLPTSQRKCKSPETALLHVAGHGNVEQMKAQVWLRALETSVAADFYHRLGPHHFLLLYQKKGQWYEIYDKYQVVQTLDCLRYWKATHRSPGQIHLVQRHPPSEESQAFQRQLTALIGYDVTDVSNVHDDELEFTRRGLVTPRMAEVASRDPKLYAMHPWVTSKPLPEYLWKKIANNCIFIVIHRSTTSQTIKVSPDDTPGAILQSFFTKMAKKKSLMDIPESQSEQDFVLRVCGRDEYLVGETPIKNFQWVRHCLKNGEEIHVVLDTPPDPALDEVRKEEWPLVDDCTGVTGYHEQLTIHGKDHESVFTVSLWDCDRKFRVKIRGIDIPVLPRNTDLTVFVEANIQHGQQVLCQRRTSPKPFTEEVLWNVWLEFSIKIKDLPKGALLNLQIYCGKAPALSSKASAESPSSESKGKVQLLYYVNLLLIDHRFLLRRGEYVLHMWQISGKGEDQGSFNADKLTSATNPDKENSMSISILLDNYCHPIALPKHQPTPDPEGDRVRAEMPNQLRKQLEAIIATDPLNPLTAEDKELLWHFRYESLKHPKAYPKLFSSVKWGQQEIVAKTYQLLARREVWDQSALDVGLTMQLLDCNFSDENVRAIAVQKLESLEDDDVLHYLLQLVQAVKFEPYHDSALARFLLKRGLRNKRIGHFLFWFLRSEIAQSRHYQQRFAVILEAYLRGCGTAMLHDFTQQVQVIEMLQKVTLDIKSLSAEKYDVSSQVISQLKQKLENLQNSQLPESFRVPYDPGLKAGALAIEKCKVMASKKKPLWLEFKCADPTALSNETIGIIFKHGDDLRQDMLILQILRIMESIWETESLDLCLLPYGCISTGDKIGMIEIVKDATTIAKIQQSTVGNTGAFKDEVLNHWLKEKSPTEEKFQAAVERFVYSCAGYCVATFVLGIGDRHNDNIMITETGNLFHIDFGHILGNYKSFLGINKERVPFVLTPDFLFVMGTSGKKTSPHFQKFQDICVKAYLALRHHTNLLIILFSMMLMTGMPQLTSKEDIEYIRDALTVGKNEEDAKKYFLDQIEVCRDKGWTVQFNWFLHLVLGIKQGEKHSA

[26] = molecular target: Serine/threonine-protein kinase PknB (Mycobacterium tuberculosis) (UniProt P9WI81); conditions: Compound concentration 100.0 nM
[27] = molecular target: Serine/threonine-protein kinase PLK2 (Homo sapiens) (UniProt Q9NYY3); conditions: Compound concentration 100.0 nM
[28] = molecular target: Serine/threonine-protein kinase PLK4 (Homo sapiens) (UniProt O00444); conditions: Compound concentration 100.0 nM
[29] = molecular target: cAMP-dependent protein kinase catalytic subunit PRKX (Homo sapiens) (UniProt P51817); conditions: Compound concentration 100.0 nM
[30] = molecular target: Proto-oncogene tyrosine-protein kinase Src (Homo sapiens) (UniProt P12931); conditions: Compound concentration 100.0 nM
[31] = molecular target: Serine/threonine-protein kinase 16 (Homo sapiens) (UniProt O75716); conditions: Compound concentration 100.0 nM
[32] = molecular target: TGF-beta receptor type-1 (Homo sapiens) (UniProt P36897); conditions: Compound concentration 100.0 nM
[33] = molecular target: Angiopoietin-1 receptor (Homo sapiens) (UniProt Q02763); conditions: Compound concentration 100.0 nM
[34] = molecular target: NT-3 growth factor receptor (Homo sapiens) (UniProt Q16288); conditions: Compound concentration 100.0 nM
NT-3 growth factor receptor (Homo sapiens), sequence (Q16288 32-839 limits assumed): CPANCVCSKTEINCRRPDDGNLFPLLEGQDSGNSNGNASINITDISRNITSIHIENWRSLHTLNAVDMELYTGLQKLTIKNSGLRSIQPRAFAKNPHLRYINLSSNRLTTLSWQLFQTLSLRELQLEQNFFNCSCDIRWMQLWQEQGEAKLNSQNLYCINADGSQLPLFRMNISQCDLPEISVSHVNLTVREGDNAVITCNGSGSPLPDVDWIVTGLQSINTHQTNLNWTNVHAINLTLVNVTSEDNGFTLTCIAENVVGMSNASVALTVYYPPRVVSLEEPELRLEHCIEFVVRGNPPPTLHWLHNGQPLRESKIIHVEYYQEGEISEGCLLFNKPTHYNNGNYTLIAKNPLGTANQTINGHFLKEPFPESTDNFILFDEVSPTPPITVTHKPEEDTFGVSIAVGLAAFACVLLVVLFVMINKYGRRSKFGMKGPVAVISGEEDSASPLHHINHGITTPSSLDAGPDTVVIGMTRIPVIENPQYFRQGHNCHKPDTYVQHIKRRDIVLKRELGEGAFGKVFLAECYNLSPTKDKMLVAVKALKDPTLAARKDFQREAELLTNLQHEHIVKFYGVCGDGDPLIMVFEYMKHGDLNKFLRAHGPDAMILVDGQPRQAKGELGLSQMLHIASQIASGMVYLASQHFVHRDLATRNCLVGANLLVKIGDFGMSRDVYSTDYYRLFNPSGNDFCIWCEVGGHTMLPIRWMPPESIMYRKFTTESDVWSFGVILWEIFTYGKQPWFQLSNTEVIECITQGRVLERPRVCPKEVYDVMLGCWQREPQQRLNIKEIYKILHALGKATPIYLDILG

[35] = molecular target: Serine/threonine-protein kinase ULK1 (Homo sapiens) (UniProt O75385); conditions: Compound concentration 100.0 nM
[36] = molecular target: Serine/threonine-protein kinase 32C (Homo sapiens) (UniProt Q86UX6); conditions: Compound concentration 100.0 nM
[37] = molecular target: 5-hydroxytryptamine receptor 1B (Homo sapiens) (UniProt P28222); conditions: Compound concentration 10.0 uM
[38] = molecular target: GABA-A receptor; anion channel (Rattus norvegicus) (UniProt O09028+P15431+P18506+P18508+P19969+P20236+P23574+P23576+P28471+P28473+P30191+P62813+P63079+P63138+Q91ZM7+Q9ES14); conditions: Compound concentration 10.0 uM

5'-AMP-activated protein kinase catalytic subunit alpha-1 (Homo sapiens), sequence (Q13131 whole entry, looked up): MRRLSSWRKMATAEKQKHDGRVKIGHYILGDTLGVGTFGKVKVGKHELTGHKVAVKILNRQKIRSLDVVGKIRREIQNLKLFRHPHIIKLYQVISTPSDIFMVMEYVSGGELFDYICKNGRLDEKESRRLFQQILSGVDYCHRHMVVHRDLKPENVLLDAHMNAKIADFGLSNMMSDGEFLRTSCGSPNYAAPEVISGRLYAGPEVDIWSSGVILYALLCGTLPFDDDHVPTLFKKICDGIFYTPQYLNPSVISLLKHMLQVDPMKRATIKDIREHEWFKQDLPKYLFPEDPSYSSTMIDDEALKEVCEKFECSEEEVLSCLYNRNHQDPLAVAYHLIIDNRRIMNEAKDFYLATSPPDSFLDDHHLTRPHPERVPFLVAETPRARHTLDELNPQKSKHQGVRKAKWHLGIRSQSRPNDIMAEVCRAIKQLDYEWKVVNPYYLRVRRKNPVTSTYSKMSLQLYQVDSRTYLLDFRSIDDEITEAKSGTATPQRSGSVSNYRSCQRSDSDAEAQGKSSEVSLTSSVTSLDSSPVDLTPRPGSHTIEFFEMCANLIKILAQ

CCOC(=O)c1cc2cc(-c3cc(C(=O)NCc4ccc(C(=O)O)cc4)nn3C)ccc2[nH]1 [BI 4394]
inactive: residual activity [1] 61% | residual activity [2] 59% | residual activity [3] 100% | residual activity [4] 98% | residual activity [5] 90% | residual activity [6] 77% | residual activity [7] 76% | residual activity [8] 74% | residual activity [9] 77% | residual activity [10] 87% | residual activity [11] 100% | residual activity [12] 100% | residual activity [13] 79% | residual activity [14] 100% | residual activity [15] 96% | residual activity [16] 100% | residual activity [17] 100% | residual activity [18] 81% | residual activity [19] 84% | residual activity [20] 86% | residual activity [21] 70% | residual activity [22] 88% | residual activity [23] 86% | residual activity [24] 95% | residual activity [25] 90% | residual activity [26] 100% | residual activity [27] 80% | residual activity [28] 82% | residual activity [29] 100% | residual activity [30] 93% | residual activity [31] 78% | residual activity [32] 100% | residual activity [33] 83% | residual activity [34] 94% | residual activity [35] 87% | residual activity [36] 100% | inhibition [37] 6.12% | inhibition [38] 1.07%

Cn1nc(C(=O)NCc2ccc(C(=O)O)cc2)cc1-c1ccc2[nH]ccc2c1 [BI 4395]
inactive: residual activity [1] 87% | residual activity [2] 98% | residual activity [3] 81% | residual activity [4] 86% | residual activity [5] 100% | residual activity [6] 77% | residual activity [7] 79% | residual activity [8] 88% | residual activity [9] 70% | residual activity [10] 85% | residual activity [11] 100% | residual activity [12] 94% | residual activity [13] 90% | residual activity [14] 94% | residual activity [15] 86% | residual activity [16] 100% | residual activity [17] 98% | residual activity [18] 100% | residual activity [19] 85% | residual activity [20] 100% | residual activity [21] 100% | residual activity [22] 100% | residual activity [23] 100% | residual activity [24] 76% | residual activity [25] 64% | residual activity [26] 76% | residual activity [27] 100% | residual activity [28] 61% | residual activity [29] 71% | residual activity [30] 100% | residual activity [31] 86% | residual activity [32] 97% | residual activity [33] 82% | residual activity [34] 89% | residual activity [35] 83% | residual activity [36] 100% | inhibition [37] 5.48% | inhibition [38] 29.1%
